Data published in ChEMBL document CHEMBL1201862, “PubChem BioAssay data set” (2004).
Active and inactive are the calls of the source.

Legend:
[1] = molecular target: T1, Microphthalmia-associated transcription factor (Homo sapiens, UniProt O75030); assay: TRPM1 promoter luciferase signal decrease, dose response, MITF inhibitor project, cell-based, SK-MEL-5, cherry-picked, set 3 (AID 493073); assay type: functional
T1 sequence (O75030 whole entry): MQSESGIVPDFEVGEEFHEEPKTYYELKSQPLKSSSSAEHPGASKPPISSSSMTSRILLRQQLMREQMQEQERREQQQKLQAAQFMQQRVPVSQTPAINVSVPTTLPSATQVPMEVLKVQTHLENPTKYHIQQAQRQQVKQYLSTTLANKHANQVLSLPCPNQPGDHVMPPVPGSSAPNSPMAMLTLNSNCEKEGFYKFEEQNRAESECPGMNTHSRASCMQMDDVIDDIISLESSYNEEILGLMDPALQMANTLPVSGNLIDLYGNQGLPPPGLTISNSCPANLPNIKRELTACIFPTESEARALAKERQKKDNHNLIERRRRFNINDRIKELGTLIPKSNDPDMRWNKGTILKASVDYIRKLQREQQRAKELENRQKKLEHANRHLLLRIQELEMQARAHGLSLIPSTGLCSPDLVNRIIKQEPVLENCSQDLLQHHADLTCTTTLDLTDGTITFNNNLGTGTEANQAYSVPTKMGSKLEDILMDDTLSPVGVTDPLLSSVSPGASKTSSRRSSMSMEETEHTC

Cytochrome P450 2C19 = Cytochrome P450 2C19 (Homo sapiens, UniProt P33261); assay: Cytochrome panel assay with activity outcomes. Panel member name: p450-cyp2c19 Compounds with AC50 equal or less than 10 uM are considered active; assay type: functional; conditions: read-out: AC50
Cytochrome P450 2C19, sequence (P33261 whole entry): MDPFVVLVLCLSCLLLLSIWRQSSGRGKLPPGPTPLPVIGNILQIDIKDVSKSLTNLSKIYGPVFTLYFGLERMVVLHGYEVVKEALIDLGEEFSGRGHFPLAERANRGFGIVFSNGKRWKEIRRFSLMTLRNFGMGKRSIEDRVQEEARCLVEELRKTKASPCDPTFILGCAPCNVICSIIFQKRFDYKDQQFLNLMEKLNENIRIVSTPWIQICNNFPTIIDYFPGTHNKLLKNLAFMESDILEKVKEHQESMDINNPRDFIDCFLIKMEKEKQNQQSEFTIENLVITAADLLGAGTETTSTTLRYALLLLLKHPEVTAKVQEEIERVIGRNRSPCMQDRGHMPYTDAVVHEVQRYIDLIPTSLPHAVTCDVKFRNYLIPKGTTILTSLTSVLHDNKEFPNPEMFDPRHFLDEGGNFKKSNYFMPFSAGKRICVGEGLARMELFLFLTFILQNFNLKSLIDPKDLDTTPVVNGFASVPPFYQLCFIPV

Cytochrome P450 2D6 = Cytochrome P450 2D6 (Homo sapiens, UniProt P10635);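 note: CYP2D6 member of a cytochrome P450 panel assay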
Cytochrome P450 2D6, sequence (P10635 whole entry): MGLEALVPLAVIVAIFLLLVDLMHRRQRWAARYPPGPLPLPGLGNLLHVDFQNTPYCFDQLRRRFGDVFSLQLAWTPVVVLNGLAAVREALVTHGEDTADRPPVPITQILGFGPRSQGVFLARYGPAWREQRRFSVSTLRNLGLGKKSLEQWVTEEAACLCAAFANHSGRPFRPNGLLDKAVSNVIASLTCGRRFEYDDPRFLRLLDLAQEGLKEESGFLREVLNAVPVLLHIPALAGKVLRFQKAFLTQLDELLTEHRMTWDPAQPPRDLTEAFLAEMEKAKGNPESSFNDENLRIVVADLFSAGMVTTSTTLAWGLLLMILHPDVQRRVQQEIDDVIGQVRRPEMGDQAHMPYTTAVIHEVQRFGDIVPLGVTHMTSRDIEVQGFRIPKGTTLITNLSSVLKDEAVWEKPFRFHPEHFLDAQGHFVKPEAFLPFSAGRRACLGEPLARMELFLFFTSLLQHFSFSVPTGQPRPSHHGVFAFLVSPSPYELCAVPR

Leucine aminopeptidase = molecular target: T2, Leucine aminopeptidase (Plasmodium falciparum 3D7, UniProt Q8IL11); assay: P. falciparum M17LAP inhibitors, primary screen, biochemical, fluorogenic H-Leu-NHMec substrate, 1536-well (AID 1619); assay type: functional
T2 sequence (Q8IL11 whole entry): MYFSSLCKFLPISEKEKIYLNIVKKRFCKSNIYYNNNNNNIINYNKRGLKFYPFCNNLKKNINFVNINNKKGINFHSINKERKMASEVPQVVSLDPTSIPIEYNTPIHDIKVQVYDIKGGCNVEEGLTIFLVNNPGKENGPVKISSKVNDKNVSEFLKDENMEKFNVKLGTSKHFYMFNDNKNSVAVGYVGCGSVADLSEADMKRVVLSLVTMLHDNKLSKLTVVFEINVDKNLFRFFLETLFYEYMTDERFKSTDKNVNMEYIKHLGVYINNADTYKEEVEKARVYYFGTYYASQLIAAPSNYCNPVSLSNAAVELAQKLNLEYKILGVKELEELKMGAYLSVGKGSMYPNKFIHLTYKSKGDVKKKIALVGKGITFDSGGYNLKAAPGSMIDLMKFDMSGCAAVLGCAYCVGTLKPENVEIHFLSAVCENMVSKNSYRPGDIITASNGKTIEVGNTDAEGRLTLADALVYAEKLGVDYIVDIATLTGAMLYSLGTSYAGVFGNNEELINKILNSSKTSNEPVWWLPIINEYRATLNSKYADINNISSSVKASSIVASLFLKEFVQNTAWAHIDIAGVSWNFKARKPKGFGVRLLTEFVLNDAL

Aminopeptidase N = molecular target: T3, Aminopeptidase N (Plasmodium falciparum FcB1/Columbia, UniProt O96935); assay: P. falciparum M1AAP inhibitors, biochemical, fluorogenic H-Leu-NHMec substrate, 1536-well (AID 1445); design: species or system Plasmodium falciparum 3D7, 3D7
T3 sequence (O96935 whole entry): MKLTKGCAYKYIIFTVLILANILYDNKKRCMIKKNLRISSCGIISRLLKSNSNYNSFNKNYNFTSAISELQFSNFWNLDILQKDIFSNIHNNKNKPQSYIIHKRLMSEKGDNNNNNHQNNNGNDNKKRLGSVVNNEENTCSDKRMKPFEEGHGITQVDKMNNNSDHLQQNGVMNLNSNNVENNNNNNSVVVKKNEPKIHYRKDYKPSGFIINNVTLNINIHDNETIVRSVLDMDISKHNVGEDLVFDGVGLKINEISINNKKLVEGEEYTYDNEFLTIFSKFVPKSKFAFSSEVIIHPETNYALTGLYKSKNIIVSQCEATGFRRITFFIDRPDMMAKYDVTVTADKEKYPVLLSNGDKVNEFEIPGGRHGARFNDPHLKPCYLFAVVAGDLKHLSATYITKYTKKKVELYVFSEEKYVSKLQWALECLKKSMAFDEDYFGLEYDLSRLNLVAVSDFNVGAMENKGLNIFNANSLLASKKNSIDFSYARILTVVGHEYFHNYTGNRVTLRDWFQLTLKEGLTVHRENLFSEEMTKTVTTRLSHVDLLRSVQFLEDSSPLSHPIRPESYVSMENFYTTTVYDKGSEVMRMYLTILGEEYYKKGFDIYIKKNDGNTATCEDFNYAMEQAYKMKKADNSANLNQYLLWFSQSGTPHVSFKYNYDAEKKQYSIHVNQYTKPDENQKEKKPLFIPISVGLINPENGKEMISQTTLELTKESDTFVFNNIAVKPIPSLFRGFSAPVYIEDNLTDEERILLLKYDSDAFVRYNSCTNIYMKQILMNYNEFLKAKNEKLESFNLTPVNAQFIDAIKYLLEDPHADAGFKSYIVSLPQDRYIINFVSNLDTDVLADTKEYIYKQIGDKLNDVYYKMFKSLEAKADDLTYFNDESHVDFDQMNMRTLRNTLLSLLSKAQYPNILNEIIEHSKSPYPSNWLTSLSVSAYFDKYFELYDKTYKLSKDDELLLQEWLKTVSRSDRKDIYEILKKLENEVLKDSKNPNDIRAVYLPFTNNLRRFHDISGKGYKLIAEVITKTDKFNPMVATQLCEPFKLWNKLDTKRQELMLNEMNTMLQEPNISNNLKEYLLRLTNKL

[2] = molecular target: T4, RNA-binding protein pos-1 (Caenorhabditis elegans, UniProt G5EF15); assay: inhibitors of POS-1/mex-3 RNA binding, dose response, biochemical, fluorescence polarization (AID 1964);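 note: purified POS-1 fused to maltose binding protein made in E. coli; potency of compounds blocking POS-1 binding to fluorescent RNA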
T4 sequence (G5EF15 whole entry): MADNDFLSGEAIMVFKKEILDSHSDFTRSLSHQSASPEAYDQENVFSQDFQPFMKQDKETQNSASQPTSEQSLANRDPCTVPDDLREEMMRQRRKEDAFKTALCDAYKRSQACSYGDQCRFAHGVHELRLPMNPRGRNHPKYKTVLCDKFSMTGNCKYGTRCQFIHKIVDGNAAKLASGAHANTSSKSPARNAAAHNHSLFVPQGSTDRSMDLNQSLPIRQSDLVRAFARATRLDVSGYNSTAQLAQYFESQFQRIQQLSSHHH

[3] = system: Streptococcus sp. 'group A'; assay: growth inhibition of control SK(-) GAS strain, dose response, counter-screen for streptokinase expression inhibitor project, luminescence, kanamycin, BacTiterGlo, confirmation (AID 1900); assay type: functional, organism-based
SUMO-activating enzyme [4] = molecular target: T5, SUMO-activating enzyme (Homo sapiens, UniProt Q9UBT2); assay: SUMOylation inhibitor hit validation, confirmation, SUMOylation inhibitor project, biochemical, AlphaScreen (AID 2018); assay type: functional
T5 sequence (Q9UBE0 whole entry): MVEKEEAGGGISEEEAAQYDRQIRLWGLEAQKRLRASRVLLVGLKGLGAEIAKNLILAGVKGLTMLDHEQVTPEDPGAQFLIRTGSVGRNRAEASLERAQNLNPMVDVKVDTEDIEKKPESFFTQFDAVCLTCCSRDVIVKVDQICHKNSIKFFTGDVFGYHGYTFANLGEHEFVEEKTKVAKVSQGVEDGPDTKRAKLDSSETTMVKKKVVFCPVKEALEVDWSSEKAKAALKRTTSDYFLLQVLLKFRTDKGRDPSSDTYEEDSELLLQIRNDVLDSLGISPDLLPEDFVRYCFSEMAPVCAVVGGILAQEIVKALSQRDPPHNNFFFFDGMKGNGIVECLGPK
T5 sequence (Q9UBT2 whole entry): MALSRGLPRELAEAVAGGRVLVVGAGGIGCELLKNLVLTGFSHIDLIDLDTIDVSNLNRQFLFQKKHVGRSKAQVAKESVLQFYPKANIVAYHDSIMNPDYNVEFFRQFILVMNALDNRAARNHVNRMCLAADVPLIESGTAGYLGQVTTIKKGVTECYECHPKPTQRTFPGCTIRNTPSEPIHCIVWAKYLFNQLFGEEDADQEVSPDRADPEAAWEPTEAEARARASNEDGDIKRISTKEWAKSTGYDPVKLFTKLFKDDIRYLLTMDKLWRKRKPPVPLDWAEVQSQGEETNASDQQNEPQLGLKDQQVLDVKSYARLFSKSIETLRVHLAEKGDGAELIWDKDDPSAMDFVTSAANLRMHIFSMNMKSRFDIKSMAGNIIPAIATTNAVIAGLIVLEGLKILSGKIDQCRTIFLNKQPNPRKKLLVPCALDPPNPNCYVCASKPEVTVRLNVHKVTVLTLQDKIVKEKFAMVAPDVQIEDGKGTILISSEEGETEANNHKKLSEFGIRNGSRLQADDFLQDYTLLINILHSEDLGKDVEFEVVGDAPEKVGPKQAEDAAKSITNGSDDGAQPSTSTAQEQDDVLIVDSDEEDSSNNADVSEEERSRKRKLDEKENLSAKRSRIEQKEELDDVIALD

[5] = molecular target: T6, Zinc finger protein mex-5 (Caenorhabditis elegans, UniProt Q9XUB2); assay: MEX-5/TCR-2 RNA interaction inhibitors, dose response, biochemical, C. elegans, fluorescence polarization (AID 1960)
T6 sequence (Q9XUB2 whole entry): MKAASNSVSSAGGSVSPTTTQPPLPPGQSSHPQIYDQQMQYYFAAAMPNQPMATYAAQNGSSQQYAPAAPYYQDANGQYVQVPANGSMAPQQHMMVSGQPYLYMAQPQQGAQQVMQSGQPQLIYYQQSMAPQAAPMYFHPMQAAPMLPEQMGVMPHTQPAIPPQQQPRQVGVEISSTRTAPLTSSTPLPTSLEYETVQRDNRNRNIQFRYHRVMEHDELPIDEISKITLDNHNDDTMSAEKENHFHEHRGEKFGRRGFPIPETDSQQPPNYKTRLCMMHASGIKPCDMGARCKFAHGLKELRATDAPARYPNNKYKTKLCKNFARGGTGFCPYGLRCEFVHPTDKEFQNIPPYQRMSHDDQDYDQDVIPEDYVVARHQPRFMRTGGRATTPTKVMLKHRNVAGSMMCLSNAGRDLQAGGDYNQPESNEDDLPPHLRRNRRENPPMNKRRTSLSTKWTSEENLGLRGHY

SUMO-activating enzyme [6] = molecular target: T5, SUMO-activating enzyme; assay: inhibitors of in vitro SUMOylation cascade, primary screen, biochemical, HTRF, uHTS (AID 2006); assay type: protein-complex assay
Streptococcus = assay: Group A Streptococcus viability loss, dose response, counter-screen for streptokinase expression inhibitor project, luminescence, BacTiterGlo (AID 1915); assay type: functional, organism-based;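 note: potency for reduction of bacterial viability or growth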
Nonstructural protein 1 = Nonstructural protein 1 (Influenza A virus, UniProt Q194T2); assay type: functional, Influenza A virus (A/California/07/2009(H1N1))
Nonstructural protein 1, sequence (Q194T2 whole entry): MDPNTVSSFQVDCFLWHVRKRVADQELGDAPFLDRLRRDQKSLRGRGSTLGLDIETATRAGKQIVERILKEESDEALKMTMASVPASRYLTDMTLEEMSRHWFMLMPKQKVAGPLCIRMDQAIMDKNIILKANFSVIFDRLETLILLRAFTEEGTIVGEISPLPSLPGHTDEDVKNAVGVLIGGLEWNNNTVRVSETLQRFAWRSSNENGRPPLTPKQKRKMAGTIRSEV

Albumin = Albumin (Bos taurus, UniProt P02769); assay: Counterscreen for inhibitors of T-cell receptor (TCR)-CD3 interaction: Fluorescence-based biochemical high throughput dose response assay to identify inhibitors of T-cell receptor (TCR)-CD3 interaction using a TAMRA-labeled BSA probe.; assay type: functional
Albumin, sequence (P02769 whole entry): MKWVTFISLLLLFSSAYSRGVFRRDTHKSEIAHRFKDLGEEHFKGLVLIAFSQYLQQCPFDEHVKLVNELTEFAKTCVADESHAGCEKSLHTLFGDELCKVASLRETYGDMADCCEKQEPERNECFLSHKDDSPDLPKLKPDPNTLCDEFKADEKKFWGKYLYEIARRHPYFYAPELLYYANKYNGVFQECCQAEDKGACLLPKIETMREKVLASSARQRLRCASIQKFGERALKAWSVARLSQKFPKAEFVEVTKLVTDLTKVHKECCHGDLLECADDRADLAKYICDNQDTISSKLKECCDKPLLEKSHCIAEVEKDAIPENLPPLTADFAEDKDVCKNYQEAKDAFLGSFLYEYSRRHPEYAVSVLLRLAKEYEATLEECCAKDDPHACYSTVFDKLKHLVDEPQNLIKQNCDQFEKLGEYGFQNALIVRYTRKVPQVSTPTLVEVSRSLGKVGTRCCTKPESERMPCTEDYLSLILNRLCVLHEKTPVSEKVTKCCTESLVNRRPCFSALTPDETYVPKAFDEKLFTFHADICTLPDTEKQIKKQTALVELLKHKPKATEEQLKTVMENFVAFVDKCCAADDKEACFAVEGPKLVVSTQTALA

Bcl-2-related protein A1 = molecular target: T7, Bcl-2-related protein A1 (Mus musculus, UniProt Q07440); assay type: functional;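 note: confirmatory dose–response counterscreen on Bfl-1, used to check hits from a UBC13 polyubiquitin inhibitor campaign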
T7 sequence (Q07440 whole entry): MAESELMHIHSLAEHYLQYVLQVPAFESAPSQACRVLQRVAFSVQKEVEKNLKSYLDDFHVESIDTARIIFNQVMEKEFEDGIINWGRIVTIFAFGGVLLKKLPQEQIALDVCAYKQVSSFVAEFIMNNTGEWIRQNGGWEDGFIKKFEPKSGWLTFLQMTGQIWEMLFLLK

[7] = molecular target: T8, Ubiquitin-conjugating enzyme E2 N (Homo sapiens, UniProt P61088); assay type: functional
T8 sequence (P61088 whole entry): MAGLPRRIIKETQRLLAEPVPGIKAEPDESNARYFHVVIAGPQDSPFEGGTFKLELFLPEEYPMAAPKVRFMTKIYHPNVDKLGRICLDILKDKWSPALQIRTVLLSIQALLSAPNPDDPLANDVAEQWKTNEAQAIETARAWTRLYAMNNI

[8] = molecular target: T8, Ubiquitin-conjugating enzyme E2 N; assay type: functional; remark: listed apart in the source
Cytochrome P450 1A2 = molecular target: T9, Cytochrome P450 1A2 (Homo sapiens, UniProt P05177);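 note: PubChem cytochrome P450 panel assay, CYP1A2 panel member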
T9 sequence (P05177 whole entry): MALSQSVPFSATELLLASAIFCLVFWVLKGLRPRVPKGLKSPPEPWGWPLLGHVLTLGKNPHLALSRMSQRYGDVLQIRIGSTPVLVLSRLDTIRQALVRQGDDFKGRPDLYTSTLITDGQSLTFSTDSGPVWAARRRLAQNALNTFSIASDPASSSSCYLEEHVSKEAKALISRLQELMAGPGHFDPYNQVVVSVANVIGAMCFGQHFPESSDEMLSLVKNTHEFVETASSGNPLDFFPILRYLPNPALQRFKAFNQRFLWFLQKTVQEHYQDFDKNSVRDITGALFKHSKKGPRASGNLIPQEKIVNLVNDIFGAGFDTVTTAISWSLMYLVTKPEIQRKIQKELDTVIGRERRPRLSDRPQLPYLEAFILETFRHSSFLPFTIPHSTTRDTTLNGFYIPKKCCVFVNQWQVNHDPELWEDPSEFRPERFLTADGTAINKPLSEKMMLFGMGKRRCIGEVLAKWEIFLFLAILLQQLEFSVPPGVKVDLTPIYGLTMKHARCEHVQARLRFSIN

Compound: [2H]C(CCOS(N)(=O)=O)c1ccc(C(C)(C)C)cc1 (stereo not drawn)
- AC50 [1]: 0.487 µM (active)

Compound: CCOc1ccc(N(CC(=O)NCc2ccc(OC)cc2)S(=O)(=O)c2c(C)noc2C)cc1
- AC50 (Cytochrome P450 2C19): 0.282 µM (inconclusive)
- AC50 (Cytochrome P450 2D6): inconclusive

Compound: O=C1NC(=O)N(Cc2ccco2)C(=O)/C1=C/NNC(=O)c1ccccc1O
- IC50 (Leucine aminopeptidase): 50.3 µM (active)
- IC50 (Aminopeptidase N): 26.2 µM (active)
- EC50 [2]: 15.5 µM (active)
- EC50 [3]: 3 µM (active)
- IC50 (SUMO-activating enzyme [4]): 2.29 µM (active)
- EC50 [5]: 16.9 µM (active)
- IC50 (SUMO-activating enzyme [6]): 15 µM (active)
- EC50 (Streptococcus): 6.03 µM (active)
- IC50 (Nonstructural protein 1): 42.3 µM (active)
- IC50 (Albumin): > 94 µM (inactive)

Compound: C=CCNC(=S)Nc1sc2c(c1C(=O)OCC)CCN(C(=O)OCC)C2
- IC50 (Bcl-2-related protein A1): > 20 µM (inactive)
- IC50 [7]: 12.4 µM (active)
- IC50 [8]: > 20 µM (inactive)

Compound: O=C(CSc1ccc(Cl)cc1)NC1CCCC1
- AC50 [1]: 14.2 µM (active)

Compound: C#CCOCCOCCOCCNc1nc(N2CCN(C(=O)[C@H](CCCCN)n3cc([C@@H](N)[C@H](C)CC)nn3)CC2)nc(N2CCN(C(=O)[C@H](CCCCN)n3cc([C@@H](N)CC(N)=O)nn3)CC2)n1
- IC50 (Bcl-2-related protein A1): > 20 µM (inactive)
- IC50 [7]: 10.3 µM (active)
- IC50 [8]: 16.6 µM (active)

Compound: CC1Cc2ccccc2N1C(=O)CSCC(=O)O (stereo not drawn)
- AC50 (Cytochrome P450 2C19): 11.2 µM (inconclusive)
- AC50 (Cytochrome P450 1A2): 20 µM (inconclusive)
- AC50 (Cytochrome P450 2D6): inconclusive
